The values that follow are results of earlier work, collected in patent US12484617B2, “Oral pouch product” (Altria Client Services LLC, priority 2022, dated 2025).

For this data set the following is noted: free base (non-protonated).

With `CN1CCCC1c1cccnc1` (stereo not shown) [Free-base nicotine, 3-(1-methyl-2-pyrrolidinyl)pyridine], the pKa value entry is “about 8”.
